Measured values: ChEMBL document CHEMBL3576782, “Bacillusin A, an Antibacterial Macrodiolide from Bacillus amyloliquefaciens AP183” (J Nat Prod, 2015)
In brackets after ≈: the same amount, converted by molar mass. Activity calls are given as the source filed them. No cut-off for these calls is given here.

Tests used:
[1] = test system: Enterococcus faecalis; assay: Bactericidal activity against Enterococcus faecalis ATCC 51299 using fresh sample in DMSO at 100 ug/ml after 24 to 48 hrs by CLSI method; type: functional, organism-based
[2] = test system: Enterococcus faecalis; assay: Antibacterial activity against Enterococcus faecalis ATCC 29212 assessed as growth inhibition using fresh sample in DMSO by CLSI method; type: functional, organism-based
[3] = test system: Staphylococcus aureus; assay: Antibacterial activity against Staphylococcus aureus ATCC 29213 assessed as growth inhibition using fresh sample in DMSO by CLSI method; type: functional, organism-based
[4] = test system: Staphylococcus aureus; assay: Bactericidal activity against methicillin-resistant Staphylococcus aureus ATCC 33591 using fresh sample in DMSO after 24 to 48 hrs by CLSI method; type: functional
[5] = test system: Staphylococcus aureus; assay: Bactericidal activity against methicillin-resistant Staphylococcus aureus EAMC30 using fresh sample in DMSO after 24 to 48 hrs by CLSI method; type: functional
[6] = test system: Staphylococcus aureus; assay: Antibacterial activity against methicillin-resistant Staphylococcus aureus EAMC30 assessed as growth inhibition using fresh sample in DMSO by CLSI method; type: functional, organism-based
[7] = test system: Staphylococcus aureus; assay: Antibacterial activity against methicillin-resistant Staphylococcus aureus ATCC 33591 assessed as growth inhibition using fresh sample in DMSO by CLSI method; type: functional, organism-based
[8] = test system: Staphylococcus aureus; assay: Bactericidal activity against Staphylococcus aureus ATCC 29213 using fresh sample in DMSO after 24 to 48 hrs by CLSI method; type: functional
[9] = test system: Enterococcus faecalis; assay: Bactericidal activity against Enterococcus faecalis ATCC 29212 using fresh sample in DMSO after 24 to 48 hrs by CLSI method; type: functional
[10] = test system: Enterococcus faecalis; assay: Antibacterial activity against Enterococcus faecalis ATCC 51299 assessed as growth inhibition using fresh sample in DMSO by CLSI method; type: functional, organism-based
[11] = Chemical stability in acetonitrile after 1 week by LC-MS analysis; type: physicochemical; conditions: 168 h
[12] = test system: Enterococcus faecalis; assay: Bactericidal activity against Enterococcus faecalis ATCC 51299 using fresh sample in DMSO after 24 to 48 hrs by CLSI method; type: functional
[13] = test system: Enterococcus faecium; assay: Antibacterial activity against vancomycin-resistant Enterococcus faecium ATCC 700221 assessed as growth inhibition using fresh sample in DMSO by CLSI method; type: functional, organism-based
[14] = test system: Enterococcus faecium; assay: Bactericidal activity against vancomycin-resistant Enterococcus faecium ATCC 700221 using fresh sample in DMSO at 20 ug/ml after 24 to 48 hrs by CLSI method; type: functional, organism-based
[15] = test system: Candida albicans; assay: Antifungal activity against Candida albicans ATCC 90028 at 20 ug/ml by CLSI method; type: functional, organism-based
[16] = test system: Staphylococcus aureus; assay: Bactericidal activity against methicillin-resistant Staphylococcus aureus ATCC 33591 using fresh sample in DMSO at 100 ug/ml after 24 to 48 hrs by CLSI method; type: functional, organism-based
[17] = test system: Staphylococcus aureus; assay: Antibacterial activity against methicillin-resistant Staphylococcus aureus ATCC 33591 assessed as growth inhibition using fresh sample in DMSO at 100 ug/ml by CLSI method; type: functional, organism-based

SMILES	IC50 [2] [µg/mL]	MIC [2] [µg/mL]	IC50 [3] [µg/mL]	MIC [3] [µg/mL]	MBC [4] [µg/mL]	MBC [5] [µg/mL]	IC50 [6] [µg/mL]	MIC [6] [µg/mL]	IC50 [7] [µg/mL]	MIC [7] [µg/mL]	MBC [8] [µg/mL]	MBC [9] [µg/mL]	IC50 [10] [µg/mL]	MIC [10] [µg/mL]	MBC [12] [µg/mL]	also measured
CN[C@H](CC(C)C)C(=O)N[C@H]1C(=O)N[C@@H](CC(N)=O)C(=O)N[C@H]2C(=O)N[C@H]3C(=O)N[C@H](C(=O)N[C@H](C(=O)O)c4cc(O)cc(O)c4-c4cc3ccc4O)[C@H](O)c3ccc(c(Cl)c3)Oc3cc2cc(c3O[C@@H]2O[C@H](CO)[C@@H](O)[C@H](O)[C@H]2O[C@H]2C[C@](C)(N)[C@H](O)[C@H](C)O2)Oc2ccc(cc2Cl)[C@H]1O [VANCOMYCIN]	1 (≈ 0.69 µM)	1.6 (≈ 1.1 µM)	0.7 (≈ 0.483 µM)	1.6 (≈ 1.1 µM)	1.6 (≈ 1.1 µM)	0.4 (≈ 0.276 µM)	0.2 (≈ 0.138 µM)	0.4 (≈ 0.276 µM)	0.8 (≈ 0.552 µM)	1.6 (≈ 1.1 µM)	50 (≈ 34.5 µM)	50 (≈ 34.5 µM)	3.4 (≈ 2.35 µM)	6.2 (≈ 4.28 µM)	–	Activity [1]: inactive
COc1cc(O)cc2c1C(=O)OC(CC(C)O)CC(O)C/C=C/C(O)CC(O)CC(O)C/C(C)=C/C=C/C=C/C=C/C=C/c1cc(O)cc(OC)c1C(=O)OC(CC(C)O)CC(O)C/C=C/C(O)CC(O)CC(O)C/C(C)=C/C=C/C=C/C=C/C=C/2 (configuration not stated)	0.2 (≈ 0.167 µM)	0.6 (≈ 0.501 µM)	0.04 (≈ 0.0334 µM)	1.2 (≈ 1 µM)	1.2 (≈ 1 µM)	0.6 (≈ 0.501 µM)	< 0.02	0.6 (≈ 0.501 µM)	0.04 (≈ 0.0334 µM)	1.2 (≈ 1 µM)	2.5 (≈ 2.09 µM)	2.5 (≈ 2.09 µM)	0.2 (≈ 0.167 µM)	0.6 (≈ 0.501 µM)	1.2 (≈ 1 µM)	Stability [11]: Unstable; IC50 [13]: 0.1 µg/mL (≈ 0.0835 µM); MIC [13]: 0.6 µg/mL (≈ 0.501 µM); Activity [14]: inactive; Activity [15]: inactive
COc1cccc(OC)c1C(=O)N[C@@H]1C(=O)N2[C@@H]1SC(C)(C)[C@@H]2C(=O)O [METHICILLIN]	15.3 (≈ 40.2 µM)	25 (≈ 65.7 µM)	–	3.1 (≈ 8.15 µM)	–	–	10.1 (≈ 26.5 µM)	50 (≈ 131 µM)	–	–	12.5 (≈ 32.9 µM)	50 (≈ 131 µM)	14.2 (≈ 37.3 µM)	50 (≈ 131 µM)	50 (≈ 131 µM)	Activity [16]: inactive; growth inhibition (GI) [17]: inactive
